Key:
Test in all cases: Transporter inhibition
Type in all cases: in vitro ADME
OATP1B1 = target: T1, OATP1B1 (Homo sapiens, UniProt Q9Y6L6); settings: 0.5 and 5 μM tested
T1 construct: expressed in transfected cells
T1 sequence (Q9Y6L6 1-691): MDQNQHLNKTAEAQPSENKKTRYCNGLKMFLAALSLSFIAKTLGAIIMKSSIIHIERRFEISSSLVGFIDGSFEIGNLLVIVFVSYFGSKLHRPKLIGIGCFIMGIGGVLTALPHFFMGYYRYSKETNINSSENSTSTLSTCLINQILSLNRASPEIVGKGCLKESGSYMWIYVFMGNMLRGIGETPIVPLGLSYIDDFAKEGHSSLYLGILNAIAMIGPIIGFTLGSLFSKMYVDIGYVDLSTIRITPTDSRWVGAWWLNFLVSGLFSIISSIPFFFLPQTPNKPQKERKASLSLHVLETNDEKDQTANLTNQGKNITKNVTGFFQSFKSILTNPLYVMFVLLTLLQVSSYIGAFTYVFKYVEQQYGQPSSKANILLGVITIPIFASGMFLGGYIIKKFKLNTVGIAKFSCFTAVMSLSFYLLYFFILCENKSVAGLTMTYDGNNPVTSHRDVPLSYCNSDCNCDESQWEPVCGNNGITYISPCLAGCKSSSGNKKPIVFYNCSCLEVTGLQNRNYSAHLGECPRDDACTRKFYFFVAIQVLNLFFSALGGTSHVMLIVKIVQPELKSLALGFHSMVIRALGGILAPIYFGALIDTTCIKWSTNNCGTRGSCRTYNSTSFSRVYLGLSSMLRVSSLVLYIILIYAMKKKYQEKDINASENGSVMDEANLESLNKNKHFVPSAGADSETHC
Description: (§1) Human transporter protein interactions with opelconazole as a potential substrate and/or inhibitor were assessed for the following key carrier transporters: organic anion transporters, OAT1 and OAT3; organic cation transporters, OCT1 and OCT2; OATP1B1 and OATP1B3; multidrug and toxin extrusion, MATE-1 and MATE2-K; key ATP-binding cassette (ABC) transporters including P-gp, breast cancer resistance protein (BCRP) and bile salt export pump (BSEP). Two concentrations of opelconazole, 0.5 and 5 μM, were tested using MDCKII cells, human embryonic kidney 293 cells and BSEP-transfected sf9 membrane vesicles and then analysed by LC-tandem MS to determine transporter inhibition and whether opelconazole was a transporter substrate. The viability of experimental test systems was confirmed with controls and known probe substrates and probe inhibitors.

OCT1 = target: T2, OCT1 (Homo sapiens, UniProt O15245); settings: 0.5 and 5 μM tested
T2 construct: expressed in transfected cells
T2 sequence (O15245 1-554): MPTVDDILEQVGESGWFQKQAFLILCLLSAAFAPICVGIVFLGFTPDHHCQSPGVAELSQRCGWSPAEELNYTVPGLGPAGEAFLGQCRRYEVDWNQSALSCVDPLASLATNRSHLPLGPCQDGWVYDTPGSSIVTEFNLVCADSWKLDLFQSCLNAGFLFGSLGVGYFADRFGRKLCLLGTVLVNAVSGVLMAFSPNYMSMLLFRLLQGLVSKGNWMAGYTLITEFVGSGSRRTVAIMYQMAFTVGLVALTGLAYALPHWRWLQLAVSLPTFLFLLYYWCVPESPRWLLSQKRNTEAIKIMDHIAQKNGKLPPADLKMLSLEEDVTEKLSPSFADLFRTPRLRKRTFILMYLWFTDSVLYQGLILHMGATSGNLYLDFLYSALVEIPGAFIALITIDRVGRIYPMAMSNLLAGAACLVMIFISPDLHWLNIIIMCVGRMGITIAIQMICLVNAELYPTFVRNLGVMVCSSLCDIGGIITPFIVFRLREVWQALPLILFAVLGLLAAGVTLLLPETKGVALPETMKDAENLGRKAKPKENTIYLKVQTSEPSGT
Description: as §1

MATE2-K = target: T3, MATE2-K (Homo sapiens, UniProt Q86VL8)
T3 construct: expressed in transfected cells
T3 sequence (Q86VL8 1-566 isoform Q86VL8-3): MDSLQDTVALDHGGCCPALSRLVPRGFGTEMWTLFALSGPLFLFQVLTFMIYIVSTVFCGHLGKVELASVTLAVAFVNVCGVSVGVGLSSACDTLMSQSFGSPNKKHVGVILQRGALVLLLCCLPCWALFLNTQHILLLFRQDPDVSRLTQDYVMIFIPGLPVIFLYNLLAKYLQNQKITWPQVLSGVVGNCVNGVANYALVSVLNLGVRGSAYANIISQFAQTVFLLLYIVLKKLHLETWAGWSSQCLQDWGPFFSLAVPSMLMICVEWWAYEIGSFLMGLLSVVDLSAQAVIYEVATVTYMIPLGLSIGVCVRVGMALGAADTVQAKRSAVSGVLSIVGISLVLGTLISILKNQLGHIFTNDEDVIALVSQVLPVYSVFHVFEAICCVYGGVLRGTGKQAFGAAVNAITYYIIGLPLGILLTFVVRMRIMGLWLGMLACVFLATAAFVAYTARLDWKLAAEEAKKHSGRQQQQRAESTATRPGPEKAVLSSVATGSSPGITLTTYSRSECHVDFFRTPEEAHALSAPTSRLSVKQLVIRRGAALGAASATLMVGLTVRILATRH
Description: as §1

P-gp = target: T4, P-gp (Homo sapiens, UniProt P08183)
T4 construct: expressed in transfected cells
T4 sequence (P08183 whole entry): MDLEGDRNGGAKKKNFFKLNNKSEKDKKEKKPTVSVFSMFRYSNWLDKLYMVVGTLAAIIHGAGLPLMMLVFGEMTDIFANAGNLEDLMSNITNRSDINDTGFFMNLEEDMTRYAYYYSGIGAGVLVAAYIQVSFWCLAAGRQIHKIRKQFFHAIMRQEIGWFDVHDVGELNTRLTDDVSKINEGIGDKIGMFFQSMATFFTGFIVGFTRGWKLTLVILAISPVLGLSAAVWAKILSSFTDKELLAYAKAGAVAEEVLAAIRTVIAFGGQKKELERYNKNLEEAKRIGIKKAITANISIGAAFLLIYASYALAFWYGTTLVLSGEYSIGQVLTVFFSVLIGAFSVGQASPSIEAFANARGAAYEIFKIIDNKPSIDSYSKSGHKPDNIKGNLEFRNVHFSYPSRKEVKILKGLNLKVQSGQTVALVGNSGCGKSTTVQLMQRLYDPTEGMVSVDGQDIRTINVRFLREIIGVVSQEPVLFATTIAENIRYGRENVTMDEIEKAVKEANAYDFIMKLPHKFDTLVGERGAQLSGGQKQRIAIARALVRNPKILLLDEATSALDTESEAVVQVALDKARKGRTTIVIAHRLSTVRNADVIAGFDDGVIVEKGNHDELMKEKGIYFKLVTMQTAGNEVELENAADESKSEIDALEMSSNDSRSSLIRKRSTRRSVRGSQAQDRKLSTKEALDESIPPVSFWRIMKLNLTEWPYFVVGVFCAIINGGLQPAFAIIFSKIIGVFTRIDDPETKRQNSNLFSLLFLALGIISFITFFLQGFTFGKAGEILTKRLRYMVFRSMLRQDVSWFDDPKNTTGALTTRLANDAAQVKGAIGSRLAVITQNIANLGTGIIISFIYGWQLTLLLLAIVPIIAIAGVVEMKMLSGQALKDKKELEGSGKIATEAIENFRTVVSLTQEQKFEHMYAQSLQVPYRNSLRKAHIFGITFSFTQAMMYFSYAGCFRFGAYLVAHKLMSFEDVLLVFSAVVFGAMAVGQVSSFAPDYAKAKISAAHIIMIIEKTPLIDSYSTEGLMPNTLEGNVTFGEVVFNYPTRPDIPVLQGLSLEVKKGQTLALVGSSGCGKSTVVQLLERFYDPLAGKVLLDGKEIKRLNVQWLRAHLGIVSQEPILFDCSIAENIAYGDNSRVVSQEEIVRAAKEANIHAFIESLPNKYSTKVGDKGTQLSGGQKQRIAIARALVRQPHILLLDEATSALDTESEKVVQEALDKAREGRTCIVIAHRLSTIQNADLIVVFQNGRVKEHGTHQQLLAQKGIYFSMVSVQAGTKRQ
Description: as §1

BSEP = target: T5, BSEP (Homo sapiens, UniProt O95342); settings: 0.5 and 5 μM tested
T5 construct: expressed in transfected cells; host or cells: Sf9 membrane vesicles
T5 sequence (O95342 whole entry): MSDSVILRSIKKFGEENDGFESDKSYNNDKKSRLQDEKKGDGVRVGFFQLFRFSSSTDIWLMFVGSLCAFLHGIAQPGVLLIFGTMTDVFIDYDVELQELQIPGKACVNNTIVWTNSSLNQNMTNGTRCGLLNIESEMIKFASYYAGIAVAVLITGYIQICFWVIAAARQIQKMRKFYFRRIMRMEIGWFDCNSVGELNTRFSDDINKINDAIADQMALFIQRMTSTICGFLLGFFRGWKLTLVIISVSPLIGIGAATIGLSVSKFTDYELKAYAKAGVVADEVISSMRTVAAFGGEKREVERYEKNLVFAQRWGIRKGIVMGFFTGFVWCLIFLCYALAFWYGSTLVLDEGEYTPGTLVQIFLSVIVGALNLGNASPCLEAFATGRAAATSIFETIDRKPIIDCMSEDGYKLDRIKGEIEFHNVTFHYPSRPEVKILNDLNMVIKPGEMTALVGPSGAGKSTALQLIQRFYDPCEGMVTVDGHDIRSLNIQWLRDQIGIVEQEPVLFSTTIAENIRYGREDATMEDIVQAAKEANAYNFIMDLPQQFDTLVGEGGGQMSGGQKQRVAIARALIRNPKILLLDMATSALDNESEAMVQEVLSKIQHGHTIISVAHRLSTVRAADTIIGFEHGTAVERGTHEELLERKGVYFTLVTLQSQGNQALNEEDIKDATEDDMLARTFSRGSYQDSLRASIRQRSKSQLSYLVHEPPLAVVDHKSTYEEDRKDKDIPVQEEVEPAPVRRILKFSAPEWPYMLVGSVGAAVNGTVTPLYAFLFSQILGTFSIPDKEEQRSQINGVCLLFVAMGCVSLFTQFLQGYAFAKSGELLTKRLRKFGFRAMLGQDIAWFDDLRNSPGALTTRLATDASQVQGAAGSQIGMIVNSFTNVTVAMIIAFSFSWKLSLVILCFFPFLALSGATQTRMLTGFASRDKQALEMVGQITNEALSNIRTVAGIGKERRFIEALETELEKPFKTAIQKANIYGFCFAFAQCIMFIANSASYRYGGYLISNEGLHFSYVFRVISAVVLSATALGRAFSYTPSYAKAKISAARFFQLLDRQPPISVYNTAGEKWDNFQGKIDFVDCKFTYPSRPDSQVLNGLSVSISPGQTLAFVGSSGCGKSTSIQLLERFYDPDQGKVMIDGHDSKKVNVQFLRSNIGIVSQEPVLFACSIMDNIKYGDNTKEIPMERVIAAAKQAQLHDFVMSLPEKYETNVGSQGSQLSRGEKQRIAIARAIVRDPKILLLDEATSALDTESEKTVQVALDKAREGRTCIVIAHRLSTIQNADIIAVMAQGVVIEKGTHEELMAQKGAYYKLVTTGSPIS
Description: as §1

OCT2 = target: T6, OCT2 (Homo sapiens, UniProt O15244)
T6 construct: expressed in transfected cells
T6 sequence (O15244 1-555): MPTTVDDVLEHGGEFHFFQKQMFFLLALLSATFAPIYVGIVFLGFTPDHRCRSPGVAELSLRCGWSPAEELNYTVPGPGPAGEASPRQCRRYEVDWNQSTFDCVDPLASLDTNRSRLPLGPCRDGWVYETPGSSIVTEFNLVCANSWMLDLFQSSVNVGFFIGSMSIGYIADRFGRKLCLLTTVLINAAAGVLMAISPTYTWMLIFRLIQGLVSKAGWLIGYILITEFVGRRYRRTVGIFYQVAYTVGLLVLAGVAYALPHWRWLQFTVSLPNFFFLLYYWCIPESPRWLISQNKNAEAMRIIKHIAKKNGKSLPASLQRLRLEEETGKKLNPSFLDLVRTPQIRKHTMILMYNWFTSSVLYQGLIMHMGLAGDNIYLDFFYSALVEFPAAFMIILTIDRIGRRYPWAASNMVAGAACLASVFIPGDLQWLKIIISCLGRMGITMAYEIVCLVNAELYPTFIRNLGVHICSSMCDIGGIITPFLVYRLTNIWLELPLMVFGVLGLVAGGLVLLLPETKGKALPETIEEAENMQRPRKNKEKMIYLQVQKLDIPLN
Description: as §1

Compound: Cc1cc(N2CCN(c3ccc(C(=O)Nc4ccc(F)cc4)cc3)CC2)ccc1OC[C@@H]1CO[C@@](Cn2cncn2)(c2ccc(F)cc2F)C1 [opelconazole]
- inhibitory interaction with OATP1B1 (OATP1B1): negligible inhibitory interactions
- inhibitory interaction with OCT1 (OCT1): negligible inhibitory interactions
- inhibition of MATE2-K relative to solvent control (MATE2-K; 0.5 μM opelconazole): 19%
- inhibition of MATE2-K relative to solvent control (MATE2-K; 5 μM opelconazole): 52%
- inhibitory interaction with P-gp (P-gp; 0.5 μM opelconazole): negligible inhibitory interactions
- inhibition of P-gp relative to solvent control (P-gp; 5 μM opelconazole): 52%
- inhibitory interaction with BSEP (BSEP): negligible inhibitory interactions
- inhibitory interaction with OCT2 (OCT2; 0.5 μM opelconazole): negligible inhibitory interactions
- inhibition of OCT2 relative to solvent control (OCT2; 5 μM opelconazole): 39%

Reference: article PMC12670164, “In vitro and clinical data demonstrate negligible risk of drug–drug interactions with opelconazole, a novel inhaled antifungal agent” (Journal of Antimicrobial Chemotherapy, 2025)
